Like-named read-outs stand apart in the source and are kept apart here.
How the values were obtained:
[1] = test system: PIM1; conditions: cited from earlier work
[2] = test system: PIM2; conditions: cited from earlier work
[3] = test system: PIM3; conditions: cited from earlier work
[4] = test system: R/R AML; conditions: cited from earlier work
[5] = test system: Solid tumor; conditions: n = 35; cited from earlier work
[6] = test system: hematology parameters (platelet counts); experiment: CGLP preclinical dog study, hematology parameters; format: in vivo
[7] = test system: MF patients; conditions: cited from earlier work
[8] = test system: R/R MF; conditions: cited from earlier work
[9] = test system: R/R MM; conditions: n = 79; cited from earlier work
[10] = test system: human erythroid progenitors (CFU-E, BFU-E); experiment: Colony forming cell assay, human erythroid progenitor (CFU-E, BFU-E) proliferation; format: cell-based; conditions: 336 h, single agent, 14 days, CFU-E and BFU-E
Procedure: (§1) Clonogenic progenitors of human erythroid (CFU-E, BFU-E), granulocyte-monocyte (CFU-GM), and multipotential (CFU-GEMM) lineages were assessed in a semi-solid methylcellulose-based media formulation containing rhIL-3 (10 ng/mL), rhGM-SCF (10 ng/mL), rhSCF (50 ng/mL), and Epo (3 U/mL).
(§2) In addition, 5-FU was evaluated at 1.0, 0.1 and 0.01 μg/mL as a positive control for toxicity.
(§3) Normal human bone marrow light density cells (lot #0210901), derived from normal bone marrow, (Lonza, Maryland) and qualified at ReachBio, were stored at −152° C. until required for the assay. On the day of the experiment, the cells were thawed rapidly, diluted in 10 mL of Iscove's modified Dulbecco's medium containing 10% fetal bovine serum (IMDM+10% FBS) and washed by centrifugation (approximately 1500 r.p.m. for 10 minutes at room temperature). The supernatant was discarded and the cell pellets were resuspended in a known volume of IMDM+10% FBS. A cell count (3% glacial acetic acid) and viability assessment (trypan blue exclusion test) was performed for the bone marrow sample.
Clonogenic progenitors of human megakaryocyte (CFU-Mk) were assessed in a collagen-based media formulation containing rhIL-3 (10 ng/mL), rhIL-6 (10 ng/mL), and Tpo (50 ng/mL). Clonogenic progenitors of the human erythroid (CFU-E and BFU-E), myeloid (CFU-GM), and megakaryocyte (CFU-Mk) lineages were set up in the media formulations described above. Individually, the test compounds were added to the medium to give the final desired concentrations (10, 3.33, 1, 0.333, 0.1, 0.0333, 0.01 and 0.00333 μM). […]
(§4) Human myeloid and erythroid progenitor assays were initiated at 1.2×10^4 cells per culture (lot #0210921) and the human megakaryocyte assays were initiated at 1.2×10^5 cells per culture (lot #0210921). Following 14 days in culture, erythroid and myeloid colonies were assessed microscopically in situ and scored by trained personnel. […] The colonies were assessed microscopically and scored by trained personnel and divided into the following categories based on size: CFU-Mk (3-20), CFU-Mk (21-49), and CFU-Mk (≥50).
(§5) Statistical analysis: The mean±standard deviation of three replicate cultures was calculated for both erythroid and myeloid progenitors. […]
(§6) Erythroid (CFU-E and BFU-E) and myeloid (CFU-GM) colony enumeration was performed by trained personnel. In addition, the distribution of colony types as well as general colony and cellular morphology was analyzed. The variance in colony number detected in replicate cultures was representative of the historical coefficient of variation for colony enumeration using these types of assays. The number and distribution of colonies detected in the solvent control (0.1% DMSO for single agents) was no different from the standard control (containing no compound and no DMSO). […]

[11] = test system: human myeloid progenitors (CFU-GM); experiment: Colony forming cell assay, human myeloid (granulocyte-monocyte, CFU-GM) progenitor proliferation; format: cell-based; conditions: single agent; for IC50: Homo sapiens, 336 h, 14 days, CFU-GM; for concentrations at which myeloid progenitor proliferation was (significantly, additionally) inhibited: vs 0.1% DMSO solvent control, p<0.01
Procedure: as §1, §2, §3
(§7) Clonogenic progenitors of human megakaryocyte (CFU-Mk) were assessed in a collagen-based media formulation containing rhIL-3 (10 ng/mL), rhIL-6 (10 ng/mL), and Tpo (50 ng/mL). Clonogenic progenitors of the human erythroid (CFU-E and BFU-E), myeloid (CFU-GM), and megakaryocyte (CFU-Mk) lineages were set up in the media formulations described above. Individually, the test compounds were added to the medium to give the final desired concentrations (10, 3.33, 1, 0.333, 0.1, 0.0333, 0.01 and 0.00333 μM). […] Solvent control cultures (containing no compound but 0.1% DMSO) as well as standard controls (containing no compound and no DMSO) were also initiated. Once introduced into the matrices, the tubes were vortexed to ensure an equal distribution throughout.
(§8) Human myeloid and erythroid progenitor assays were initiated at 1.2×10^4 cells per culture (lot #0210921) and the human megakaryocyte assays were initiated at 1.2×10^5 cells per culture (lot #0210921). Following 14 days in culture, erythroid and myeloid colonies were assessed microscopically in situ and scored by trained personnel. The colonies were divided into the following categories based on size and morphology: CFU-E, BFU-E, CFU-GM, and CFU-GEMM. The human megakaryocyte cultures were transferred from the 35 mm dishes to labeled glass slides, fixed with methanol/acetone fixative, and then stained with anti-human CD41 antibody and an alkaline phosphate detection system according to manufacturers' instructions. The colonies were assessed microscopically and scored by trained personnel and divided into the following categories based on size: CFU-Mk (3-20), CFU-Mk (21-49), and CFU-Mk (≥50).
(§9) Statistical analysis: The mean±standard deviation of three replicate cultures was calculated for both erythroid and myeloid progenitors. Two-tailed standard t-tests were performed to assess if there was a difference in the number of colonies generated between solvent control and treated cultures. Due to the potential subjectivity of colony enumeration, a p value of less than 0.01 is deemed significant. To calculate the concentration of 50% inhibition of colony growth (IC50) for each compound, a dose response curve was generated plotting the log of the compound concentration versus the percentage of control colony growth using GraphPad Prism 9 software.
as §6

[12] = test system: human megakaryocyte progenitors (CFU-Mk); experiment: Colony forming cell assay, human megakaryocyte progenitor (CFU-Mk) proliferation; format: cell-based; conditions: for IC50: Homo sapiens, read-out: IC50, total CFU-Mk (megakaryocyte progenitor proliferation)
Procedure: as §2, §3, §7, §8, §9
Other than the test compounds being combined, the only change from the method in Example 1 was a 0.2% DMSO solvent control instead of 0.1% DMSO. The results are provided in FIGS. 2A-4C (FIGS. 2A-2C are human megakaryocytes (CFU-MK), FIGS. 3A-3C are human erythroid (CFU-E, BFU-E), and FIGS. 4A-4C are human granulocyte-monocyte (CFU-GM).

[13] = test system: human myeloid, erythroid and megakaryocyte progenitors; experiment: Colony forming cell assays taken together (erythroid, myeloid, megakaryocyte progenitors); format: cell-based; conditions: single agents compared
Procedure: as §1, §2
Normal human bone marrow light density cells (lot #0210901), derived from normal bone marrow, (Lonza, Maryland) and qualified at ReachBio, were stored at −152° C. until required for the assay. […]
Clonogenic progenitors of human megakaryocyte (CFU-Mk) were assessed in a collagen-based media formulation containing rhIL-3 (10 ng/mL), rhIL-6 (10 ng/mL), and Tpo (50 ng/mL). […]
as §4, §5

[14] = read-out: Preclinical IC50, PIM1
[15] = read-out: Preclinical IC50, PIM2
[16] = read-out: Preclinical IC50, PIM3
[17] = JAKARTA, monotherapy 400 mg QD, N = 96
[18] = R/R AML (n = 30), Other (n = 9)
[19] = ≥50 × 10^9/L PLT, regimen RUX+Paraclisib
[20] = MOMENTUM, monotherapy 200 mg QD, N = 195
[21] = PERSIST 2, monotherapy 200 mg BID, N = 106
[22] = COMFORT 1, monotherapy 5-25 mg BID, N = 155

N[C@@H]1CCCN(c2c(/C=C3\SC(=O)NC3=O)cccc2-c2ccccc2)C1 [AZD1208]
IC50 [1, 14]: […] | IC50 [2, 15]: […] | IC50 [3, 16]: 1.9 nM | Efficacy, circulating blasts (in several patients) ([4]; R/R AML, n = 32): response, reduction | Hem AE, Febrile neutropenia ([4]; R/R AML, n = 32): (28%) | Non-hem AE, diarrhea ([4]; R/R AML, n = 32): diarrhea (44%), | Non-hem AE, nausea ([4]; R/R AML, n = 32): Nausea (47%) | Non-hem AE, pneumonia ([4]; R/R AML, n = 32): pneumonia (19%) | Non-hem AE, vomiting ([4]; R/R AML, n = 32): vomiting (31%), | Efficacy, stable disease for ≥6 weeks [5]: ≥6 weeks in 13 patients | Hem AE, Anemia [5]: Anemia (51%), | Hem AE, Thrombocytopenia [5]: (14-26%) | Hem AE, WBC decreased [5]: WBC decreased (26%) | Non-hem AE, diarrhea [5]: Diarrhea (83%), | Non-hem AE, nausea [5]: nausea (74%) | Non-hem AE, vomiting [5]: vomiting (54%),

CN1CCC(CNc2ccc3ncc(-c4cccc(OC(F)(F)F)c4)n3n2)CC1 [Compound (2)]
hematology parameters ([6]; 10 mg/kg/day, either sex): not considered to be altered | platelet counts (PLT) increase ([6]; 30 mg/kg/day, females): 12.1% | platelet counts (PLT) increase ([6]; 30 mg/kg/day, males): 16.5% | platelet counts (PLT) increase ([6]; 90 mg/kg/day, females): 26.3% | platelet counts (PLT) increase ([6]; 90 mg/kg/day, males): 20% | IC50 ([1]; unit inferred, read-out: PIM1 IC50): […] | IC50 ([2]; unit inferred, read-out: PIM2 IC50): 980 nM | IC50 ([3]; unit inferred, read-out: PIM3 IC50): 20 nM

Cc1cnc(Nc2ccc(OCCN3CCCC3)cc2)nc1Nc1cccc(S(=O)(=O)NC(C)(C)C)c1 [Fedratinib, fedratinib]
TEAE Anemia, All Gr [7, 17]: 99% | TEAE Anemia, ≥3 Gr [7, 17]: 43% | TEAE Neutropenia, All Gr [7, 17]: 28% | TEAE Neutropenia, ≥3 Gr [7, 17]: 8% | TEAE Thrombocytopenia, All Gr [7, 17]: 63% | TEAE Thrombocytopenia, ≥3 Gr [7, 17]: 17%

C[C@H]1CN(c2c(NC(=O)c3ccc(F)c(-c4c(F)cccc4F)n3)cnc3c2CC[C@H]3O)C[C@@H](N)[C@@H]1O [INCB053914]
IC50 [1, 14]: 0.24 nM | IC50 [2, 15]: 30 nM | IC50 [3, 16]: 0.12 nM | Hem AE, G3+ anemia [4, 18]: G3+ Anemia (18%) | Hem AE, G3+ thrombocytopenia [4, 18]: (13%) | Non-hem AE, ALT/AST increased [4, 18]: (36%), | Non-hem AE, diarrhea [4, 18]: diarrhea (21%), rash | Non-hem AE, nausea [4, 18]: nausea (23%), | Non-hem AE, rash [4, 18]: (15%)

CC1(C)CCC(c2ccc(Cl)cc2)=C(CN2CCN(c3ccc(C(=O)NS(=O)(=O)c4ccc(N[C@H](CCN5CCOCC5)CSc5ccccc5)c(S(=O)(=O)C(F)(F)F)c4)cc3)CC2)C1 [Navitoclax, navitoclax]
SVR35 at Week 24 ([8]; ≥100 × 10^9/L PLT, monotherapy): 7% | TSS50 at Week 24 ([8]; ≥100 × 10^9/L PLT, monotherapy): 10%

C[C@@H]1C[C@H](N)C[C@H](c2ccncc2NC(=O)c2ccc(F)c(-c3c(F)cccc3F)n2)C1 [PIM447]
Hem AE, G3+ anemia [9]: G3+ anemia (20%), | Hem AE, G3+ neutropenia [9]: (20%) | Hem AE, G3+ thrombocytopenia [9]: (33%) | Non-hem AE, G3+ diarrhea [9]: (6.3%), | Non-hem AE, pneumonia [9]: pneumonia (7.6%)

CCOc1c([C@H](C)n2nc(C)c3c(N)ncnc32)cc(Cl)c(F)c1[C@@H]1CNC(=O)C1 [Parsaclisib, parsaclisib]
SVR35 at Week 24 [8, 19]: 3% | TSS50 at Week 24 [8, 19]: 11%

Cc1noc2c1-c1ccccc1C(c1ccc(Cl)cc1)=N[C@H]2CC(N)=O [Pelabresib, pelabresib]
SVR35 at Week 24 ([8]; ≥75 × 10^9/L PLT, monotherapy): 11% | TSS50 at Week 24 ([8]; ≥75 × 10^9/L PLT, monotherapy): 28%

N#CCNC(=O)c1ccc(-c2ccnc(Nc3ccc(N4CCOCC4)cc3)n2)cc1 [momelotinib]
IC50 [10]: 1600 nM | IC50 [11]: 260 nM | concentrations at which myeloid progenitor proliferation was (significantly, additionally) inhibited [11]: 1.0 µM | IC50 ([12]; single agent): 300 nM | SVR35 at Week 24 ([8]; ≥25 × 10^9/L PLT, monotherapy): 23% | TSS50 at Week 24 ([8]; ≥25 × 10^9/L PLT, monotherapy): 25% | TEAE Anemia, All Gr [7, 20]: 99% | TEAE Anemia, ≥3 Gr [7, 20]: 61% | TEAE Neutropenia, All Gr [7, 20]: 29% | TEAE Neutropenia, ≥3 Gr [7, 20]: 12% | TEAE Thrombocytopenia, All Gr [7, 20]: 76% | TEAE Thrombocytopenia, ≥3 Gr [7, 20]: 28%

C1=C/COCc2cc(ccc2OCCN2CCCC2)Nc2nccc(n2)-c2cccc(c2)COC/1 [pacritinib]
IC50 [10]: 280 nM | IC50 [11]: 170 nM | concentrations at which myeloid progenitor proliferation was (significantly, additionally) inhibited [11]: 0.1 µM | IC50 ([12]; single agent): 340 nM | SVR35 at Week 24 ([8]; <50 × 10^9/L PLT, monotherapy): 29% | TEAE Anemia, All Gr [7, 21]: 24% | TEAE Anemia, ≥3 Gr [7, 21]: 22% | TEAE Neutropenia, ≥3 Gr [7, 21]: 7% | TEAE Thrombocytopenia, All Gr [7, 21]: 34% | TEAE Thrombocytopenia, ≥3 Gr [7, 21]: 32%

N#CC[C@H](C1CCCC1)n1cc(-c2ncnc3[nH]ccc23)cn1 [ruxolitinib]
IC50 [10]: 110 nM | IC50 [11]: 100 nM | IC50 ([12]; single agent): 200 nM | concentrations at which total CFU-Mk was (significantly) inhibited ([12]; single agent, vs solvent control): ≥ 0.033 µM | relative potency of inhibition of megakaryocyte progenitors ([12]; single agents compared): most potent | relative potency of inhibition of progenitor proliferation [13]: most potent | TEAE Anemia, All Gr [7, 22]: 96% | TEAE Anemia, ≥3 Gr [7, 22]: 45% | TEAE Neutropenia, All Gr [7, 22]: 19% | TEAE Neutropenia, ≥3 Gr [7, 22]: 7% | TEAE Thrombocytopenia, All Gr [7, 22]: 70% | TEAE Thrombocytopenia, ≥3 Gr [7, 22]: 13%
